From patent publication US12459921B2, “Isoindoline compound, preparation method, pharmaceutical composition and use thereof” (SHANGHAI INSTITUTE OF MATERIA MEDICA, CHINESE ACADEMY OF …, priority 2018, dated 2025) come the findings set out here.

Each structure is given as a SMILES string.

For this test, the system named is MM.1S cells. Nature of the test: Inhibitory effect on the proliferation of MM.1S, MTS cell viability test. Format: cell-based. Particulars: Homo sapiens, MM1.S, 168 h, multiple myeloma MM.1S cells, 7 days incubation, read-out: Tumor cell inhibitory activity. On the procedure: Method of tumor cell proliferation inhibition test: the inventors tested all the example compounds on hematologic tumor cells, multiple myeloma MMTs cell line and acute leukemia cell MV-4-11 cell line of some examples. The activity test method and results are as follows.
1. The Compound's Inhibitory Effect on the Proliferation of MM.1S, MTS Cell Viability Test:
MM.1S cells were cultured and collected with 1640 plus 10% fetal bovine serum. The cell concentration was diluted according to 7 days, and 180 ul cell suspension was added to each well of the 96-well cell plate to 20,000 cells. 20 ul of DMSO with a final concentration of 0.2% was added to the control wells. The compound was 5-fold diluted—from the 10 mM stock solution, and 20 ul was also added to each compound cell well (the final concentration of DMSO was 0.2%). The cells were placed in a 37° C., 5% CO2 incubator to incubate for 7 days. After the reaction solution was prepared according to the MTS kit (Promega, G5430), 20 μL was added to each well and incubated in a 37° C., 5% CO2 incubator for 3-4 h. Absorbance value at 490 nm was read with a microtiter plate, and 690 nm absorbance value was used as the background value. OD490-OD690 was used as the final initial data. The formula for calculating the inhibition rate of the compound is: inhibition rate=(ODDMSO-ODcompound)/(ODDMSO-Oblank)×100%. The compound's proliferation inhibition IC50 was fitted by Graph Pad Prism 5.0. The experiment was repeated three times, and the average and standard deviation was calculated according to the three parallel experiments.
Cell viability test results: **** represents cell viability IC50>20 μM, […] represents cell viability 1 μM<IC50<20 μM, ** represents cell viability 100 nM<IC50<1 μM, * represents cell viability IC50<100 nM.
A general note: Tetrazolium dyes change colour on reduction, which living cells bring about.
With `N[C@@H](CCCc1cccc2c1CN(C1CCC(=O)NC1=O)C2=O)c1nc2cccc(Br)c2[nH]1` (stereo in doubt) [Example 195, 3-(4-((S)-4-amino-4-(7-bromo-1H-benzo[d]imidazole-2-)butyl)-1-oxoisoindoline-2-)piperidine-2,6-dione], the IC50 is 100 to 1000 nM. Turning to `O=C1CCC(N2Cc3c(CCCCCOc4ccnc5ccccc45)cccc3C2=O)C(=O)N1` (stereo not drawn) [Example 1, 3-(1-oxo-4-(5-(quinoline-4-oxy)pentyl)isoindoline-2-)piperidine-2,6-dione], the IC50 is less than 100 nM. Turning to `O=C1CCC(N2Cc3c(CCCOc4ccnc5ccccc45)cccc3C2=O)C(=O)N1` (stereo not drawn) [Example 2, 3-(1-oxo-4-(3-(quinoline-4-oxy)propyl)isoindoline-2-)piperidine-2,6-dione], the IC50 was in the range of 100 to 1000 nM. As to `O=C1CCC(N2Cc3c(CCCCCCOc4ccnc5ccccc45)cccc3C2=O)C(=O)N1` (stereo not drawn) [Example 3, 3-(1-oxo-4-(6-(quinoline-4-oxy)hexyl)isoindoline-2-)piperidine-2,6-dione], the IC50 was less than 100 nM.

`O=C1CCC(N2Cc3c(OCCCOc4ccnc5ccccc45)cccc3C2=O)C(=O)N1` (stereo not drawn) [Example 4, 3-(1-oxo-4-(3-(quinoline-4-oxy)propoxy)isoindoline-2-)piperidine-2,6-dione]: the IC50 was 1000 to 20000 nM. On to `O=C1CCC(N2Cc3c(CCCCCOc4cccc5cnccc45)cccc3C2=O)C(=O)N1` (stereo not drawn) [Example 5], for which the IC50 lay in the range of 100 to 1000 nM.

In the case of `O=C1CCC(N2Cc3c(OCCCCOc4ccnc5ccccc45)cccc3C2=O)C(=O)N1` (stereo not drawn) [Example 6, 3-(1-oxo-4-(4-(quinoline-4-oxy)butoxy)isoindoline-2-)piperidine-2,6-dione], the IC50 is less than 100 nM. To `Cc1ccc2nc(C(F)(F)F)cc(OCCCCCc3cccc4c3CN(C3CCC(=O)NC3=O)C4=O)c2c1` (stereo not drawn) [Example 7, 3-(4-(5-((6-methyl-2-(trifluoromethyl)quinoline-4-)oxy)pentyl)-1-oxoisoindoline-2-)piperidine-2,6-dione] belongs 100 to 1000 nM. As to `O=C1CCC(N2Cc3c(OCCCCOc4cc(C5CC5)nc5ccccc45)cccc3C2=O)C(=O)N1` (stereo not drawn) [Example 8, 3-(4-(4-((2-cyclopropylquinoline-4-)oxy)butoxy)-1-oxoisoindoline-2-)piperidine-2,6-dione], the IC50 was less than 100 nM. In the case of `O=C1CCC(N2Cc3c(CCCCCOc4ccnc5ccsc45)cccc3C2=O)C(=O)N1` (stereo not drawn) [Example 9, 3-(1-oxo-4-(5-(thieno[3,2-b]pyridine-7-oxy)pentyl)isoindoline-2-)piperidine-2,6-dione], the IC50 was less than 100 nM.

Take `CCc1cc(OCCCCOc2cccc3c2CN(C2CCC(=O)NC2=O)C3=O)c2ccccc2n1` (stereo not drawn) [Example 10, 3-(4-(4-((2-ethylquinoline-4-)oxy)butoxy)-1-oxoisoindoline-2-)piperidine-2,6-dione]: the IC50 is less than 100 nM. Turning to `O=C1CCC(N2Cc3c(CCCCCOc4cnc5ccccc5c4)cccc3C2=O)C(=O)N1` (stereo not drawn) [Example 11, 3-(1-oxo-4-(5-(quinoline-3-oxy)pentyl)isoindoline-2-)piperidine-2,6-dione], the IC50 was less than 100 nM. Regarding `O=C1CCC(N2Cc3c(OCCCCCOc4ccnc5ccccc45)cccc3C2=O)C(=O)N1` (stereo not drawn) [Example 12, 3-(1-oxo-4-((5-(quinoline-4-oxy)pentyl)oxy)isoindoline-2-)piperidine-2,6-dione], the IC50 is 100 to 1000 nM. To `O=C1CCC(N2Cc3c(CCCCCOc4cc(C(F)(F)F)nc5ccccc45)cccc3C2=O)C(=O)N1` (stereo not drawn) [Example 13, 3-(1-oxo-4-(5-((2-(trifluoromethyl)quinoline-4-)oxy)pentyl)isoindoline-2-)piperidine-2,6-ditone] belongs less than 100 nM; to `O=C1CCC(N2Cc3c(OCCCCCCOc4ccnc5ccccc45)cccc3C2=O)C(=O)N1` (stereo not drawn) [Example 14, 3-(1-oxo-4-((6-(quinoline-4-oxy)hexyl)oxy)isoindoline-2-)piperidine-2,6-dione], less than 100 nM.

As to `O=C1CCC(N2Cc3c(CCCCOc4ccnc5ccccc45)cccc3C2=O)C(=O)N1` (stereo not drawn) [Example 15, 3-(1-oxo-4-(4-(quinoline-4-oxy)butyl)isoindoline-2-)piperidine-2,6-dione], the IC50 was less than 100 nM. Consider `O=C1CCC(N2Cc3c(CCCCCN4CCOCC4)cccc3C2=O)C(=O)N1` (stereo not drawn) [Example 16, 3-(4-(5-morpholinpentyl)-1-oxoisoindoline-2)-piperidine-2,6-dione], for which the IC50 lay in the range of 100 to 1000 nM. Take `O=C1CCC(N2Cc3c(CCCCCN4CCCC4c4ccccc4)cccc3C2=O)C(=O)N1` (stereo not drawn) [Example 17, 3-(1-oxo-4-(5-(2-phenylpyrroline-1-)pentyl)indoline-2-)piperidine-2,6-dione]: the IC50 is less than 100 nM. The result for `O=C1CCC(N2Cc3c(CCCCCN4CCN(c5ccccc5)CC4)cccc3C2=O)C(=O)N1` (stereo not drawn) [Example 18, 3-(1-oxo-4-(5-(4-phenylpiperazine-1-)pentyl)indoline-2-)piperidine-2,6-dione] reads less than 100 nM; that for `COc1ccccc1N1CCN(CCCCCc2cccc3c2CN(C2CCC(=O)NC2=O)C3=O)CC1` (stereo not drawn) [Example 19, 3-(4-(5-(4-(2-methoxyphenyl)piperazine-1-)pentyl)-1-oxoindoline-2-)piperidine-2,6-dione], less than 100 nM; that for `O=C1CCC(N2Cc3c(CCCCCN4CCC(c5ccccc5)CC4)cccc3C2=O)C(=O)N1` (stereo not drawn) [Example 20, 3-(1-oxo-4-(5-(4-phenylpiperidine-1-)pentyl)indoline-2-)piperidine-2,6-dione], more than 20000 nM. To `O=C1CCC(N2Cc3c(CCCCN4CCN(c5cccc(Cl)c5Cl)CC4)cccc3C2=O)C(=O)N1` (stereo not drawn) [Example 21, 3-(4-(4-(4-(2,3-dichlorophenyl)piperazine-1-)butyl)-1-oxoisoindoline-2-)piperidine-2,6-dione] belongs less than 100 nM; to `O=C1CCC(N2Cc3c(CCCCCN4CCN(c5cccc(C(F)(F)F)c5)CC4)cccc3C2=O)C(=O)N1` (stereo not drawn) [Example 23, 3-(1-oxo-4-(5-(4-(3-trifluoromethylphenyl)piperazine-1-)pentyl)isoindoline-2-)piperidine-2,6-dione], less than 100 nM.

`O=C1CCC(N2Cc3c(CCCCCN4CCN(c5ccnc6ccccc56)CC4)cccc3C2=O)C(=O)N1` (stereo not drawn) [Example 24, 3-(1-oxo-4-(5-(4-(quinoline-4-)piperazine-1-)pentyl)isoindoline-2-)piperidine-2,6-dione]: the IC50 is less than 100 nM. Take `C[C@]1(N2Cc3c(OCCCN4CCN(c5cccc(Cl)c5Cl)CC4)cccc3C2=O)CCC(=O)NC1=O` [Example 25, (S)-3-(4-(3-(4-(2,3-dichlorophenyl)piperazine-1-)propoxy)-1-oxoisoindoline-2-)-3-methylpiperidine-2,6-dione]: the IC50 lay in the range of 1000 to 20000 nM. Take `O=C1CCC(N2Cc3c(CCCCCN4CCN(c5cccc(Cl)c5Cl)CC4)cccc3C2=O)C(=O)N1` (stereo not drawn) [Example 26, 3-(4-(5-(4-(2,3-dichlorophenyl)piperazine-1-)pentyl)-1-oxoisoindoline-2-)piperidine-2,6-dione]: the IC50 is less than 100 nM. For the compound `C[C@]1(N2C(=O)c3cccc(OCCCN4CCN(c5cccc(Cl)c5Cl)CC4)c3C2=O)CCC(=O)NC1=O` [Example 27, (S)-4-(3-(4-(2,3-dichlorophenyl)piperazine-1-)propoxy)-2-(3-methyl-2,6-dioxopiperidine-3-)isoindoline-1,3-dione], the IC50 lay in the range of 1000 to 20000 nM.
